The values below come from patent US10800790B2, “Sesquiterpenoid STAT3 inhibitors” (University of Hawaii, priority 2013, dated 2020).

One test relates to U251MG cells. Put plainly: Wound healing assay for migration. It counts as cell-based, human. Conditions: 0-5 micromolar, 19 h, viability unaffected. The method, then:
Viable cell numbers at 19 h post-treatment were counted and are represented (right panel). Values are the mean and S.D. of 3-4 independent determinations. Data are representative of 3 independent determinations.
This assay was performed as previously reported. (Xu, Y., supra). Briefly, subconfluent cultures of U251MG cells in 6-well plates were wounded using pipette tips and treated with compound or vehicle (DMSO) and allowed to migrate into the denuded area over a 19 h period. The migration of cells was visualized at a 10× magnification using an Axiovert 200 inverted fluorescence microscope (Zeiss), with pictures taken using a mounted Canon Powershot A640 digital camera.

Test [1] relates to pY705STAT3 in U251MG or MDA-MB-231 cells. Kind of test: Immunoblotting of pY705STAT3 in treated tumor cells.
Protocol: Positions of STATs:DNA complexes or proteins in gel are labeled; control lanes (0) represent nuclear extracts or whole-cell lysates prepared from 0.05% DMSO-treated cells. Data are representative of at least three to four independent determinations.
Lysates of equal total protein prepared in the lysis buffer (50 mM Hepes, pH 7.5, 150 mM NaCl, 2 mM EDTA, 1% Triton X-100, 0.1% SDS), were subjected to IP or Western blotting analysis. Antibodies against STAT3, pY705STAT3, Src, pY416Src, Erk1/2, and pT202/Y204Erk1/2 and GAPDH (Cell Signaling Technology, Danvers, Mass.), and anti-β-actin, and HSP105 (Santa Cruz Biotechnology, Dallas, Tex.) are from the designated sources.
Whole-cell lysates were prepared in boiling SDS sample loading buffer to extract total proteins, as reported previously. […] Nitrocellulose membranes were probed with primary antibodies, and the detection of horseradish peroxidase-conjugated secondary antibodies by enhanced chemiluminescence (Amersham) was performed. Antibodies used were monoclonal anti-pYSTAT3 and anti-STAT3 antibodies (Cell Signaling Technology, Danvers, Mass.).
The next test deals with U251 MG cells. Kind of test: iTRAQ proteomics with immunoblot validation, U251 MG cells. Type of test: cell-based, human. The method, then: To investigate the possibility that the hirsutinolides could induce global molecular changes in the sensitive malignant cells, lysates were prepared from U251 MG cells untreated or treated with 6 or 22 for 1 h and analyzed by isobaric peptide labeling and nanoLC-MS/MS analysis (iTRAQ) proteomics method (Ross, P. L., et al., Multiplexed protein quantitation in Saccharomyces cerevisiae using amine-reactive isobaric tagging reagents, Mol Cell Proteomics., 2004. 3: p. 1154-69), as described in the Examples section. A search was pursed of the 341,908 mass spectrometry spectra using ProteinPilot (version 4.5; Applied Biosystems) against the National Center for Biotechnology Information non-redundant reference sequence (NCBInr) human database and based on the criteria of choosing only proteins with at least 95% confidence and with a “Local False Discovery Rate” no higher than 5%, as calculated from the slope of the accumulated Decoy database hits by the PSPEP estimation. […]
Cellular samples were prepared according to the Pennsylvania STATe University College of Medicine Mass Spectrometry and Proteomics Core (MSPC) facility (Hershey, Pa.) standard protocol, adapted from the manufacturer's instructions (Applied Biosystems Sciex, Foster City, Calif.), combined with filter-aided sample preparation, as previously reported. […] For iTRAQ analysis (Ross, P. L., et al., Multiplexed protein quantitation in Saccharomyces cerevisiae using amine-reactive isobaric tagging reagents, Mol Cell Proteomics., 2004, 3: p. 1154-69), one hundred micrograms of whole-cell lysates from U251 MG cells untreated (DMSO control) or treated with 5 micromolar of compounds 22 or 6 for 1 h were independently digested, and their corresponding cellular proteins were differently labeled with 114, 115 or 117 tags, respectively, using iTRAQ reagents. […] Protein identification and quantification for iTRAQ samples were carried out using ProteinPilot™ software (version 4.5; Applied Biosystems, MDS-Sciex, Framingham, Mass.). […]
Background: In western blotting, separated proteins are transferred to a membrane and probed.

Regarding “(4S,6R,E)-4,7-dihydroxy-6,10-dimethyl-2-oxo-2,4,5,6,7,8,9,10-octahydro-7,10-epoxycyclodeca[b]furan-3-yl)methyl(E)-2-methylbut-2-enoate [Compound 22]”, the “Cell migration into the denuded area” value in the test with U251MG cells is recorded as “suppressed the numbers of U251 cells migrating into the denuded area”. Moreover, in test [1] (5 micromolar, 0-24 h, U251MG or MDA-MB-231, Table 1/FIG. 2 numbering), the “Effect on pY705STAT3 / STAT3 activity (immunoblot), in words” value is recorded as “early inhibition at 15-30 min”. Moreover, the “pY705STAT3 inhibition in combination with sodium orthovanadate” value in test [1] (U251MG, 5 micromolar compound, 10-300 micromolar orthovanadate, 3 h) was “failed to overcome the inhibitory effect”. The “Expression of GCN1 (immunoblot)” value with U251 MG cells (U251MG) was “reduced expression”. For the same substance, in the test on U251 MG cells (iTRAQ, 5 micromolar, 1 h), the “Importin subunit α-2 up” value came to 2 fold and the MAP1B down is given as around 2 fold.
